Laboratory results published in the NIST ThermoML archive (doi:10.1016/j.fluid.2012.05.002).

Assay: osmotic coefficient (dimensionless); mn = molality of the nth substance listed, in mol/kg
Conditions: 298.1 K, 20 kPa, Liquid, isopiestic method

O=C(O)C(O)C(O)C(=O)O (centres undefined) [2,3-dihydroxybutanedioic acid] + O
Conditions | osmotic coefficient
m1 = 0.3554 | 0.461
m1 = 0.51 | 0.382
m1 = 0.698 | 0.313
m1 = 1.074 | 0.286
m1 = 1.268 | 0.285
m1 = 1.739 | 0.283
m1 = 2.361 | 0.292
m1 = 2.404 | 0.292
m1 = 3.449 | 0.322
m1 = 4.311 | 0.351
m1 = 5.203 | 0.379
m1 = 6.517 | 0.416
m1 = 7.737 | 0.437

CC(=O)O [acetic acid] + O
Conditions | osmotic coefficient
m1 = 0.3254 | 1.034
m1 = 0.4489 | 1.014
m1 = 0.6191 | 0.991
m1 = 0.7688 | 0.9736
m1 = 1.029 | 0.9465
m1 = 1.262 | 0.925
m1 = 1.638 | 0.8942
m1 = 2.236 | 0.852
m1 = 2.588 | 0.8295
m1 = 3.693 | 0.768
m1 = 4.687 | 0.72
m1 = 6.292 | 0.652
m1 = 9.635 | 0.535
m1 = 14.92 | 0.375

CCCC(=O)O [butanoic acid] + O
Conditions | osmotic coefficient
m1 = 0.2966 | 1.051
m1 = 0.3972 | 1.03
m1 = 0.7027 | 0.9809
m1 = 0.9898 | 0.9364
m1 = 1.539 | 0.8612
m1 = 2.501 | 0.755
m1 = 2.652 | 0.74
m1 = 4.544 | 0.598
m1 = 5.353 | 0.553
m1 = 6.364 | 0.506
m1 = 7.777 | 0.454
m1 = 9.598 | 0.402
m1 = 12 | 0.351
m1 = 15.29 | 0.302
m1 = 17.6 | 0.278

O=C(O)CC(O)(CC(=O)O)C(=O)O [citric acid] + O
Conditions | osmotic coefficient
m1 = 0.2947 | 1.058
m1 = 0.3878 | 1.058
m1 = 0.6515 | 1.058
m1 = 0.8686 | 1.067
m1 = 1.039 | 1.073
m1 = 1.225 | 1.082
m1 = 1.753 | 1.12
m1 = 2.327 | 1.17
m1 = 2.699 | 1.194
m1 = 3.133 | 1.23
m1 = 3.816 | 1.288
m1 = 4.436 | 1.34
m1 = 5.134 | 1.4
m1 = 5.522 | 1.44
m1 = 5.987 | 1.47
m1 = 6.701 | 1.52
m1 = 7.6 | 1.58
m1 = 8.205 | 1.62

O=CO [formic acid] + O
Conditions | osmotic coefficient
m1 = 0.3334 | 1.047
m1 = 0.6596 | 1.078
m1 = 0.7817 | 1.089
m1 = 0.9947 | 1.109
m1 = 1.248 | 1.133
m1 = 1.439 | 1.151
m1 = 1.688 | 1.173
m1 = 2.27 | 1.226
m1 = 2.667 | 1.26
m1 = 2.913 | 1.28
m1 = 3.395 | 1.322
m1 = 3.782 | 1.35
m1 = 4.446 | 1.41
m1 = 4.836 | 1.44
m1 = 5.352 | 1.48
m1 = 5.619 | 1.49

O=C(O)CC(O)C(=O)O (centres undefined) [hydroxybutanedioic acid] + O
Conditions | osmotic coefficient
m1 = 0.1223 | 1.343
m1 = 0.2625 | 0.828
m1 = 0.3917 | 0.426
m1 = 0.5398 | 0.351
m1 = 0.8231 | 0.441
m1 = 0.9977 | 0.506
m1 = 1.245 | 0.528
m1 = 1.848 | 0.531
m1 = 2.634 | 0.54
m1 = 3.207 | 0.554
m1 = 3.996 | 0.566
m1 = 5.166 | 0.584
m1 = 6.325 | 0.613
m1 = 7.352 | 0.626

O=C(O)CC(=O)O [propanedioic acid] + O
Conditions | osmotic coefficient
m1 = 0.1216 | 1.144
m1 = 0.3009 | 0.456
m1 = 0.5079 | 0.268
m1 = 0.6604 | 0.274
m1 = 0.7994 | 0.314
m1 = 1.01 | 0.354
m1 = 1.08 | 0.362
m1 = 1.631 | 0.373
m1 = 2.392 | 0.401
m1 = 3.127 | 0.436
m1 = 4.097 | 0.455
m1 = 5.12 | 0.469
m1 = 6.369 | 0.498
m1 = 9.545 | 0.525

CCC(=O)O [propanoic acid] + O
Conditions | osmotic coefficient
m1 = 0.3425 | 1.054
m1 = 0.4819 | 1.036
m1 = 0.6261 | 1.018
m1 = 0.8086 | 0.9963
m1 = 1.054 | 0.9683
m1 = 1.294 | 0.942
m1 = 1.796 | 0.892
m1 = 2.261 | 0.851
m1 = 2.918 | 0.7984
m1 = 4.125 | 0.718
m1 = 5.45 | 0.647
m1 = 7.948 | 0.549
m1 = 8.132 | 0.542
m1 = 10.51 | 0.478
m1 = 12.4 | 0.438
